From patent publication US20150141411A1, “SUBSTITUTED 3,4-DIHYDRO-2H-PYRIDO[1,2-A]PYRAZINE-1,6-DIONE DERIVATIVES USEFUL FOR THE TREATMENT OF (INTER ALIA) ALZHEIMER'S DISEASE” (Janssen Pharmaceuticals, Inc., priority 2012, published 2015)

Tests used:
γ-secretase [1] = target: T1, γ-secretase (Homo sapiens, UniProt P49768); assay: Screening for γ-secretase-modulating activity: Aβtotal in supernatant of SKNBE2 cells carrying hAPP 695 wild type (Alphalisa); type: cell-based; conditions: SKNBE2 human neuroblastoma cells carrying hAPP 695 wild type, overnight incubation, Aβtotal in cell supernatant
T1 construct: endogenous in cells; host or cells: SKNBE2 human neuroblastoma cells (carrying hAPP 695 wild type as substrate)
Method in brief: (§1)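 SKNBE2 neuroblastoma cells expressing wild-type hAPP 695 plated at 10^4 cells/well in Ultraculture with test compound, incubated overnight at 37° C. Aβ42 (C-terminal/N-terminal antibody pair) and Aβtotal (N-terminal/4G8 pair) in supernatant quantified by AlphaLISA. IC50 from 4-parameter fit of percent of compound-free control.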

γ-secretase [2] = target: T1, γ-secretase; assay: Screening for γ-secretase-modulating activity: Aβ42 in supernatant of SKNBE2 cells carrying hAPP 695 wild type (Alphalisa); type: cell-based; conditions: SKNBE2 human neuroblastoma cells carrying hAPP 695 wild type, overnight incubation, Aβ42 in cell supernatant
Method in brief: as §1

| IC50 (γ-secretase [1]) [nM] | melting point [°C] | IC50 (γ-secretase [2]) [nM] | SMILES |
| --- | --- | --- | --- |
| > 10000 | 136.5 | 1860 | Cc1cn(-c2cc(Cl)c3n(c2=O)CCN(Cc2cccc(-c4ccccc4)c2)C3=O)cn1 [compound 88] |
| > 10000 | 146.5 | > 10000 | Cc1cncn1-c1ccc2n(c1=O)CCN(Cc1ccccc1)C2=O [compound 89] |
| > 10000 | 138 to 143 | 70 | Cc1cn(-c2ccc3n(c2=O)CCN(Cc2cccc(-c4ccc(F)cc4C(F)(F)F)c2)C3=O)cn1 [compound 90] |
| > 10000 | 192.2 | 6760 | Cc1cn(-c2ccc3n(c2=O)CCN(Cc2ccc4c(c2)OCCCO4)C3=O)cn1 [compound 93] |
| > 10000 | 181.6 | 7590 | Cc1cn(-c2ccc3n(c2=O)CCN(Cc2cccc(N4CCOCC4)c2)C3=O)cn1 [compound 95] |
| > 10000 | 163.6 | 760 | Cc1cn(-c2ccc3n(c2=O)CCN(Cc2cccc(N4CCCCC4)c2)C3=O)cn1 [compound 96] |
| > 10000 | 207.8 | 440 | Cc1cn(-c2ccc3n(c2=O)CCN(Cc2cccc(N4CCCCC4)c2C)C3=O)cn1 [compound 97] |
| > 10000 | 167.4 | 760 | Cc1cn(-c2ccc3n(c2=O)CCN(Cc2ccccc2N2CCCCC2)C3=O)cn1 [compound 100] |
| > 10000 | 121.5 | 740 | Cc1cn(-c2ccc3n(c2=O)CCN(Cc2cccc(C4CC4)c2)C3=O)cn1 [compound 101] |
| > 10000 | 222.2 | > 10000 | Cc1cn(-c2ccc3n(c2=O)CCN(c2ccccc2C)C3=O)cn1 [compound 102] |
| > 10000 | 176.8 | 2450 | Cc1cn(-c2ccc3n(c2=O)CCN(CCC2COc4ccccc4O2)C3=O)cn1 (stereo not drawn) [compound 103] |
| > 10000 | 253.5 | 2820 | Cc1cn(-c2ccc3n(c2=O)CCN(C2CCc4c2cccc4C(F)(F)F)C3=O)cn1 (stereo not drawn) [compound 105] |
| > 10000 | 189.4 | 720 | Cc1cn(-c2ccc3n(c2=O)CCN(C2CCCc4ccc(C(F)(F)F)cc42)C3=O)cn1 (stereo not drawn) [compound 106] |
| > 10000 | 257.3 | 2450 | Cc1cn(-c2ccc3n(c2=O)CCN(C2CCCc4c2cccc4C(F)(F)F)C3=O)cn1 (stereo not drawn) [compound 107] |
| > 10000 | 136.1 | 400 | Cc1cn(-c2ccc3n(c2=O)C[C@@H](C)N(Cc2ccc4c(c2)OC(F)(F)O4)C3=O)cn1 [compound 113] |
| > 10000 | 101.4 | 140 | Cc1cn(-c2ccc3n(c2=O)C[C@@H](C)N(Cc2ccc4scc(Br)c4c2)C3=O)cn1 [compound 115] |
| > 10000 | 151.2 | > 10000 | COc1cccc(CN2CCn3c(ccc(-n4cnc(C)n4)c3=O)C2=O)c1 [compound 119] |
| > 10000 | 194.9 | 6170 | Cc1ncn(-c2ccc3n(c2=O)CCN(Cc2cccc(C(F)(F)F)c2)C3=O)n1 [compound 120] |
| > 10000 | 173.4 | 380 | Cc1cn(-c2ccc3n(c2=O)CCCN(Cc2ccc(Cl)c(Cl)c2)C3=O)cn1 [compound 121] |

| IC50 (γ-secretase [1]) [nM] | melting point [°C] | IC50 (γ-secretase [2]) [nM] | SMILES |
| --- | --- | --- | --- |
| > 10000 | 136.5 | 2340 | Cc1cn(-c2ccc3n(c2=O)C[C@@H](C)N(Cc2ccccc2)C3=O)cn1 [compound 124] |
| > 10000 | 170.7 | 200 | Cc1cn(-c2ccc3n(c2=O)C[C@@H](C)N(Cc2cc(Cl)cc(Cl)c2)C3=O)cn1 [compound 131] |
| > 10000 | 160.9 | 510 | Cc1ncn(-c2ccc3n(c2=O)CC(C)N(Cc2cc(C(F)(F)F)cc(C(F)(F)F)c2)C3=O)n1 (stereo not drawn) [compound 155] |
| 8710 | 147.7 | 2040 | Cc1cn(-c2c(Br)cc3n(c2=O)C[C@@H](C)N(Cc2cc(C(F)(F)F)cc(C(F)(F)F)c2)C3=O)cn1 [compound 157] |
| > 10000 | 171.7 | 190 | Cc1cn(-c2ccc3n(c2=O)CCN(Cc2cc(OC(C)C)cc(C(F)(F)F)c2)C3=O)cn1 [compound 160] |
| > 10000 | 225.6 | 1410 | Cc1cn(-c2ccc3n(c2=O)CCN(C(C)c2cc(F)cc(C(F)(F)F)c2)C3=O)cn1 (stereo not drawn) [compound 168] |
| > 10000 | 182.3 | 250 | Cc1cn(-c2ccc3n(c2=O)CCN(C(C)Cc2cc(C(F)(F)F)cc(C(F)(F)F)c2)C3=O)cn1 (stereo not drawn) [compound 172] |
| 7410 | 187 | 20 | Cc1cn(-c2ccc3n(c2=O)C[C@@H](C)N(Cc2cn(C)c4cc(F)c(Cl)cc24)C3=O)cn1 [compound 196] |
| > 10000 | 181 | 20 | Cc1cn(-c2ccc3n(c2=O)C[C@@H](C)N(Cc2cn(C(C)C)c4cc(Br)ccc24)C3=O)cn1 [compound 200] |
| > 10000 | 161 | 50 | Cc1cn(-c2ccc3n(c2=O)C[C@@H](C)N(Cc2cn(C)c4cc(C(F)(F)F)ccc24)C3=O)cn1 [compound 228] |
| > 10000 | 129 | 130 | Cc1cn(-c2ccc3n(c2=O)C[C@@H](C)N(CCc2cccc(C(F)(F)F)c2C)C3=O)cn1 [compound 229] |
| > 10000 | 192 | 210 | Cc1cn(-c2ccc3n(c2=O)C[C@@H](C)N(CCc2cc(Cl)ccc2Cl)C3=O)cn1 [compound 230] |
| > 10000 | 148 | 210 | Cc1cn(-c2ccc3n(c2=O)C[C@@H](C)N(CCc2cc(C(F)(F)F)ccc2F)C3=O)cn1 [compound 232] |
| > 10000 | 193 | 260 | COc1ccc(Cl)cc1CCN1C(=O)c2ccc(-n3cnc(C)c3)c(=O)n2C[C@H]1C [compound 233] |
| 6000 | 150 | 20 | CCn1cc(CN2C(=O)c3ccc(-n4cnc(C)c4)c(=O)n3C[C@H]2C)c2cc(OC)c(Cl)cc21 [compound 251] |
| 6000 | 217 | 20 | Cc1cn(-c2ccc3n(c2=O)CCN(Cc2cn(C)c4cc(Cl)c(Cl)cc24)C3=O)cn1 [compound 254] |
| 3000 | 265 | 10 | Cc1cn(-c2ccc3n(c2=O)C[C@@H](C)N(Cc2cn(C)c4cc(Cl)c(Cl)cc24)C3=O)cn1 [compound 255] |
| 6000 | 230 | 20 | Cc1cn(-c2ccc3n(c2=O)CCN(Cc2cn(C)c4c(Cl)cc(Cl)cc24)C3=O)cn1 [compound 259] |
